Tested on: promastigotes of L. amaz/tc3
Experiment: Fluorescence assay against promastigotes of L. amaz/tc3 (tdTomato)
Format: cell-based, Leishmania (Leishmania) amazonensis
Conditions: Leishmania, 48 h, read-out: IC50 against promastigotes of L. amaz/tc3
Description: Then, we evaluated the efficacy of MI, a reference drug for leishmaniasis by the fluorescence method (L. amaz/tc3) and by the conventional method based in counting the parasite at the optic microscope (L. amaz/wt). Mid-log promastigotes of L. amaz/tc3 and L. amaz/wt were harvest and seeded (1 x 10^6/0.1 ml) with different concentrations of MI (40 to 0.6 µg/ml) in a 96-well plate at 23°C. Promastigotes cultured only in medium were the controls. Parasite viability was determined by measuring the fluorescence of L. amaz/tc3 in a plate reader (Tecan, Männedorf, Switzerland) and by counting the mobile promastigotes in a Neubauer chamber at the optic microscope (40x) (Leitz Wetzlar, Germany) at 48 h of incubation with MI. Viability was calculated with the formula: ViabilityL.amaz/tc3 =FLt/FLc×100 where, FLt is the fluorescence of treated culture, and FLc is the fluorescence of control; ViabilityL.amaz/wt=NPt/NPc×100 where, NPt is the number of promastigotes in the treated culture, and NPc is the number of promastigotes in control culture. Then, the 50% inhibitory concentration (IC50) of MI was estimated.
After fluorescence assay validation as it is described above, the method was used to evaluate in vitro the flavonoids anti-leishmanial activity. Mid-log promastigotes of L. amaz/tc3 were harvest and seeded with different concentrations of GAL (1,200 to 18.75 µM), MO, FI and RU (40 to 1.25 µM), and EGCG (300 to 18.75 µM). Positive control were promastigotes treated with PE (4 to 0.25 µM), the negative control were promastigotes cultured with medium only, and the blank was the culture medium. The parasites were incubated at 23°C for 48 h. The anti-leishmanial activity was determined by measuring the parasite fluorescence in a plate reader (Tecan, Männedorf, Switzerland). The viability was estimated as was described above for MI (fluorescent assay). The IC50 was calculated for each compound.

O=c1c(O)c(-c2ccccc2)oc2cc(O)cc(O)c12 [GAL, Galangin]
IC50: 53.1 µM
